{
  "source": "patent US4356165A",
  "about": "“Bupropion radioimmunoassay, and kit” (Burroughs Wellcome Co., priority 1980, dated 1982)",
  "test_system": "antisera raised by presenting a suitable bupropion variant-carrier material conjugate",
  "assay": "Competition of bupropion with radiolabeled bupropion or competitor for binding to antisera",
  "protocol": "Samples of six standard solutions of bupropion in blank plasma having concentrations of 0.39 to 50 ng/ml) are pipetted (0.1 ml each) in duplicate into 12×75 mm plastic tubes. Duplicate non-specific binding (no antibody) and maximum binding tubes (no unlabeled bupropion) receive 0.1 ml blank plasma. Spiked plasma controls at several concentrations of (e.g., 1.0, 10.0, and 100 ng/ml) and plasma samples for assay (diluted into the standard range with blank plasma if necessary) are assayed in duplicate. After being placed in an ice bath, all tubes receive (in order) 0.2 ml ^3 H bupropion (416 pg. containing approximately 10^4 cpm) and 0.7 ml anti-bupropion serum (raised to a ring-functionalized immunogen according to the present invention) (at pre-determined dilutions such that approximately 40% of the ^3 H bupropion added is bound), both in assay buffer (0.05 M phosphate-bufferedisotonic saline, containing 0.01 M EDTA and 0.1% gelatin, pH 7.0). […] The supernatants, containing antibody-bound ^3 H bupropion are carefully decanted into liquid scintillation cocktail for quantitation of ^3 H. After counts (minus average non-specific binding cpm) are expressed as percentages of average maximum binding cpm, bupropion concentrations in plasma samples and spiked controls are read from a standard curve (log concentration vs percent average maximum binding).",
  "data": [
    {"smiles": "CC(NC(C)(C)C)C(=O)c1cccc(Cl)c1", "note": "(racemic) [bupropion, (±)-2-tert-butylamino-3'-chloropropiophenone]", "values": [
      {"measurement": "competition with radiolabeled bupropion or radiolabeled competitor for binding to antisera", "result": "successfully compete"}
    ]}
  ]
}
